Reference: patent publication US20230219904A1 (SYNGENTA CROP PROTECTION AG, priority 2020, published 2023)

Tests used:
Type in all cases: in vivo
Conditions in all cases: applied at 125 g/ha, evaluated after 13 days
[1] = tested on: Abutilon theophrasti (ABUTH); assay: Pre-emergence herbicidal glasshouse test (Table B1)
Description: (§1) Seeds of a variety of test species are sown in standard soil in pots (Lolium perenne (LOLPE), Amaranthus retoflexus (AMARE), Abutilon theophrasti (ABUTH), Setaria faberi (SETFA), Echinochloa crus-galh (ECHCG), Ipomoea hederacea (IPOHE)). After cultivation for one day (pre-emergence) or after 8 days cultivation (post-emergence) under controlled conditions in a glasshouse (at 24/16° C., day/night; 14 hours light; 65% humidity), the plants are sprayed with an aqueous spray solution derived from the formulation of the technical active ingredient in acetone/water (50:50) solution containing 0.5% Tween 20 (polyoxyethelyene sorbitan monolaurate, CAS RN 9005-64-5). Compounds are applied at 500 g/h unless otherwise indicated. The test plants are then grown in a glasshouse under controlled conditions in a glasshouse (at 24/16° C., day/night; 14 hours light; 65% humidity) and watered twice daily. After 13 days for pre and post-emergence, the test is evaluated for the percentage damage caused to the plant. The biological activities are shown in the following table on a five-point scale (5=80-100%; 4=60-79%; 3=40-59%; 2=20-39%; 1=0-19%).

[2] = tested on: Echinochloa crus-galh (ECHCG); assay: as above
Description: as §1

[3] = tested on: Amaranthus retoflexus (AMARE); assay: as above
Description: as §1

[4] = tested on: Ipomoea hederacea (IPOHE); assay: as above
Description: as §1

Setaria faberi (SETFA) [5] = assay: as above
Description: as §1

[6] = tested on: Echinochloa crus-galh (ECHCG); assay: Post-emergence herbicidal glasshouse test (Table B1)
Description: as §1

[7] = tested on: Amaranthus retoflexus (AMARE); assay: as above
Description: as §1

[8] = tested on: Ipomoea hederacea (IPOHE); assay: as above
Description: as §1

Setaria faberi (SETFA) [9] = assay: as above
Description: as §1

Cc1cc(C(=O)Nc2c(OC(F)(F)F)ccc(C(=O)Nc3nnnn3C)c2Cl)nn1C [Compound 1.046]
PRE Application ABUTH, percentage damage on five-point scale [1]: 5 (5=80-100%) | PRE Application ECHCG, percentage damage on five-point scale [2]: 5 (5=80-100%) | PRE Application AMARE, percentage damage on five-point scale [3]: 5 (5=80-100%) | PRE Application IPOHE, percentage damage on five-point scale [4]: 5 (5=80-100%) | PRE Application SETFA, percentage damage on five-point scale (Setaria faberi (SETFA) [5]): 5 (5=80-100%) | POST Application ECHCG, percentage damage on five-point scale [6]: 5 (5=80-100%) | POST Application AMARE, percentage damage on five-point scale [7]: 5 (5=80-100%) | POST Application IPOHE, percentage damage on five-point scale [8]: 5 (5=80-100%) | POST Application SETFA, percentage damage on five-point scale (Setaria faberi (SETFA) [9]): 5 (5=80-100%)

Cc1c(C(F)F)c(C(=O)Nc2c(OC(F)F)ccc(C(=O)Nc3nnnn3C)c2Cl)nn1C [Compound 1.052]
PRE Application ABUTH, percentage damage on five-point scale [1]: 5 (5=80-100%) | PRE Application ECHCG, percentage damage on five-point scale [2]: 5 (5=80-100%) | PRE Application AMARE, percentage damage on five-point scale [3]: 5 (5=80-100%) | PRE Application IPOHE, percentage damage on five-point scale [4]: 4 (4=60-79%) | PRE Application SETFA, percentage damage on five-point scale (Setaria faberi (SETFA) [5]): 5 (5=80-100%) | POST Application ECHCG, percentage damage on five-point scale [6]: 4 (4=60-79%) | POST Application AMARE, percentage damage on five-point scale [7]: 5 (5=80-100%) | POST Application IPOHE, percentage damage on five-point scale [8]: 4 (4=60-79%) | POST Application SETFA, percentage damage on five-point scale (Setaria faberi (SETFA) [9]): 5 (5=80-100%)

Cn1nnnc1NC(=O)c1ccc(OC(F)F)c(NC(=O)c2cc(C(F)(F)F)ccn2)c1Cl [Compound 1.053]
PRE Application ABUTH, percentage damage on five-point scale [1]: 5 (5=80-100%) | PRE Application ECHCG, percentage damage on five-point scale [2]: 4 (4=60-79%) | PRE Application AMARE, percentage damage on five-point scale [3]: 5 (5=80-100%) | PRE Application IPOHE, percentage damage on five-point scale [4]: 4 (4=60-79%) | PRE Application SETFA, percentage damage on five-point scale (Setaria faberi (SETFA) [5]): 4 (4=60-79%) | POST Application ECHCG, percentage damage on five-point scale [6]: 3 (3=40-59%) | POST Application AMARE, percentage damage on five-point scale [7]: 5 (5=80-100%) | POST Application IPOHE, percentage damage on five-point scale [8]: 4 (4=60-79%) | POST Application SETFA, percentage damage on five-point scale (Setaria faberi (SETFA) [9]): 5 (5=80-100%)

CCOCCC(=O)Nc1c(OC(F)(F)F)ccc(C(=O)Nc2nnnn2C)c1Cl [Compound 1.057]
PRE Application ABUTH, percentage damage on five-point scale [1]: 5 (5=80-100%) | PRE Application ECHCG, percentage damage on five-point scale [2]: 5 (5=80-100%) | PRE Application AMARE, percentage damage on five-point scale [3]: 5 (5=80-100%) | PRE Application IPOHE, percentage damage on five-point scale [4]: 5 (5=80-100%) | PRE Application SETFA, percentage damage on five-point scale (Setaria faberi (SETFA) [5]): 4 (4=60-79%) | POST Application ECHCG, percentage damage on five-point scale [6]: 5 (5=80-100%) | POST Application AMARE, percentage damage on five-point scale [7]: 5 (5=80-100%) | POST Application IPOHE, percentage damage on five-point scale [8]: 4 (4=60-79%) | POST Application SETFA, percentage damage on five-point scale (Setaria faberi (SETFA) [9]): 5 (5=80-100%)

COCCCC(=O)Nc1c(OC(F)(F)F)ccc(C(=O)Nc2nnnn2C)c1Cl [Compound 1.058]
PRE Application ABUTH, percentage damage on five-point scale [1]: 5 (5=80-100%) | PRE Application ECHCG, percentage damage on five-point scale [2]: 5 (5=80-100%) | PRE Application AMARE, percentage damage on five-point scale [3]: 5 (5=80-100%) | PRE Application IPOHE, percentage damage on five-point scale [4]: 5 (5=80-100%) | PRE Application SETFA, percentage damage on five-point scale (Setaria faberi (SETFA) [5]): 3 (3=40-59%) | POST Application ECHCG, percentage damage on five-point scale [6]: 5 (5=80-100%) | POST Application AMARE, percentage damage on five-point scale [7]: 4 (4=60-79%) | POST Application IPOHE, percentage damage on five-point scale [8]: 4 (4=60-79%) | POST Application SETFA, percentage damage on five-point scale (Setaria faberi (SETFA) [9]): 4 (4=60-79%)

Cn1nnnc1NC(=O)c1ccc(OC(F)(F)F)c(NC(=O)C(F)F)c1Cl [Compound 1.059]
PRE Application ABUTH, percentage damage on five-point scale [1]: 5 (5=80-100%) | PRE Application ECHCG, percentage damage on five-point scale [2]: 4 (4=60-79%) | PRE Application AMARE, percentage damage on five-point scale [3]: 5 (5=80-100%) | PRE Application IPOHE, percentage damage on five-point scale [4]: 3 (3=40-59%) | PRE Application SETFA, percentage damage on five-point scale (Setaria faberi (SETFA) [5]): 1 (1=0-19%) | POST Application ECHCG, percentage damage on five-point scale [6]: 5 (5=80-100%) | POST Application AMARE, percentage damage on five-point scale [7]: 5 (5=80-100%) | POST Application IPOHE, percentage damage on five-point scale [8]: 3 (3=40-59%) | POST Application SETFA, percentage damage on five-point scale (Setaria faberi (SETFA) [9]): 4 (4=60-79%)

CCn1nnnc1NC(=O)c1ccc(OC(F)(F)F)c(NC(=O)C(C)(F)F)c1Cl [Compound 1.060]
PRE Application ABUTH, percentage damage on five-point scale [1]: 5 (5=80-100%) | PRE Application ECHCG, percentage damage on five-point scale [2]: 4 (4=60-79%) | PRE Application AMARE, percentage damage on five-point scale [3]: 5 (5=80-100%) | PRE Application IPOHE, percentage damage on five-point scale [4]: 3 (3=40-59%) | PRE Application SETFA, percentage damage on five-point scale (Setaria faberi (SETFA) [5]): 4 (4=60-79%) | POST Application ECHCG, percentage damage on five-point scale [6]: 4 (4=60-79%) | POST Application AMARE, percentage damage on five-point scale [7]: 5 (5=80-100%) | POST Application IPOHE, percentage damage on five-point scale [8]: 4 (4=60-79%) | POST Application SETFA, percentage damage on five-point scale (Setaria faberi (SETFA) [9]): 5 (5=80-100%)

CCn1nnnc1NC(=O)c1ccc(OC(F)(F)F)c(NC(=O)CCCOC)c1Cl [Compound 1.067]
PRE Application ABUTH, percentage damage on five-point scale [1]: 5 (5=80-100%) | PRE Application ECHCG, percentage damage on five-point scale [2]: 5 (5=80-100%) | PRE Application AMARE, percentage damage on five-point scale [3]: 5 (5=80-100%) | PRE Application IPOHE, percentage damage on five-point scale [4]: 5 (5=80-100%) | PRE Application SETFA, percentage damage on five-point scale (Setaria faberi (SETFA) [5]): 5 (5=80-100%) | POST Application ECHCG, percentage damage on five-point scale [6]: 5 (5=80-100%) | POST Application AMARE, percentage damage on five-point scale [7]: 5 (5=80-100%) | POST Application IPOHE, percentage damage on five-point scale [8]: 4 (4=60-79%) | POST Application SETFA, percentage damage on five-point scale (Setaria faberi (SETFA) [9]): 5 (5=80-100%)

CCC(COC)C(=O)Nc1c(OC(F)(F)F)ccc(C(=O)Nc2nnnn2CC)c1Cl (stereo not drawn) [Compound 1.069]
PRE Application ABUTH, percentage damage on five-point scale [1]: 5 (5=80-100%) | PRE Application ECHCG, percentage damage on five-point scale [2]: 5 (5=80-100%) | PRE Application AMARE, percentage damage on five-point scale [3]: 5 (5=80-100%) | PRE Application IPOHE, percentage damage on five-point scale [4]: 4 (4=60-79%) | PRE Application SETFA, percentage damage on five-point scale (Setaria faberi (SETFA) [5]): 5 (5=80-100%) | POST Application ECHCG, percentage damage on five-point scale [6]: 5 (5=80-100%) | POST Application AMARE, percentage damage on five-point scale [7]: 4 (4=60-79%) | POST Application IPOHE, percentage damage on five-point scale [8]: 4 (4=60-79%) | POST Application SETFA, percentage damage on five-point scale (Setaria faberi (SETFA) [9]): 5 (5=80-100%)

CCCOCC(=O)Nc1c(OC(F)(F)F)ccc(C(=O)Nc2nnnn2CC)c1Cl [Compound 1.070]
PRE Application ABUTH, percentage damage on five-point scale [1]: 5 (5=80-100%) | PRE Application ECHCG, percentage damage on five-point scale [2]: 4 (4=60-79%) | PRE Application AMARE, percentage damage on five-point scale [3]: 5 (5=80-100%) | PRE Application IPOHE, percentage damage on five-point scale [4]: 4 (4=60-79%) | PRE Application SETFA, percentage damage on five-point scale (Setaria faberi (SETFA) [5]): 4 (4=60-79%) | POST Application ECHCG, percentage damage on five-point scale [6]: 4 (4=60-79%) | POST Application AMARE, percentage damage on five-point scale [7]: 4 (4=60-79%) | POST Application IPOHE, percentage damage on five-point scale [8]: 4 (4=60-79%) | POST Application SETFA, percentage damage on five-point scale (Setaria faberi (SETFA) [9]): 4 (4=60-79%)

CCn1nnnc1NC(=O)c1ccc(OC(F)(F)F)c(NC(=O)C(C)OC)c1Cl (stereo not drawn) [Compound 1.071]
PRE Application ABUTH, percentage damage on five-point scale [1]: 5 (5=80-100%) | PRE Application ECHCG, percentage damage on five-point scale [2]: 5 (5=80-100%) | PRE Application AMARE, percentage damage on five-point scale [3]: 5 (5=80-100%) | PRE Application IPOHE, percentage damage on five-point scale [4]: 5 (5=80-100%) | PRE Application SETFA, percentage damage on five-point scale (Setaria faberi (SETFA) [5]): 5 (5=80-100%) | POST Application ECHCG, percentage damage on five-point scale [6]: 5 (5=80-100%) | POST Application AMARE, percentage damage on five-point scale [7]: 4 (4=60-79%) | POST Application IPOHE, percentage damage on five-point scale [8]: 4 (4=60-79%) | POST Application SETFA, percentage damage on five-point scale (Setaria faberi (SETFA) [9]): 5 (5=80-100%)
